Reference: patent US8933075B2, “Compounds useful as antiviral agents, compositions, and methods of use” (priority 2010, dated 2015)

These compounds were tested on A/Udorn/72 (H3N2) virus (assay: Plaque assay in MDCK cells: EC50 by reduction of plaque number). Conditions: MDCK.
Type: cell-based, influenza virus
`COc1cc(OC)cc(-c2cc(CCCCN3CCOCC3)c(/C=C3\SC(=S)N(C4CC5CCC4C5)C3=O)o2)c1` (stereo not shown) [Compound 359] gave an EC50 of less than 100 nM.
Compound `COc1ccc(-c2ccc(/C=C3\SC(=S)N(C4C5CC6CC(C5)CC4C6)C3=O)o2)cc1C(=O)O` (stereo not shown) [Compound 34] has an EC50 of less than 100 nM.
`COc1cc(OC)cc(-c2cc(CCCN3CCOCC3)c(/C=C3\SC(=S)N(C4C5CC6CC(C5)CC4C6)C3=O)o2)c1` (stereo not shown) [Compound 182] showed an EC50 of less than 100 nM.
`COC(=O)COc1ccc2c(O)c(-c3ccc(/C=C4\SC(=S)N(C5CC6CCC5C6)C4=O)o3)c(=O)oc2c1` (stereo not shown) [Compound 318] was tested, and the EC50 was less than 100 nM.
Compound `COc1cccc(-c2cc(CCCOC(=O)[C@@H](CC(N)=O)NC(=O)OC(C)(C)C)c(/C=C3\SC(=S)N(C4C5CC6CC(C5)CC4C6)C3=O)o2)c1` (stereo partly shown) [Compound 354] has an EC50 of less than 100 nM.
`O=C1/C(=C/c2cc(CCCCCO)c(-c3ccc(Cl)cc3)s2)SC(=S)N1C1CC2CCC1C2` (stereo not shown) [Compound 284] was tested, and the EC50 was less than 100 nM.
For `O=C1/C(=C/c2cc(CCCO)c(-c3ccc(Cl)cc3)n2Cc2ccccc2)SC(=S)N1C1C2CC3CC(C2)CC1C3` (stereo not shown) [Compound 257], the EC50 was less than 100 nM.
`O=C1/C(=C/c2c[nH]c3ccccc23)SC(=S)N1C1C2CC3CC(C2)CC1C3` (stereo not shown) [Compound 215, 3-adamantan-2-yl-5-(1H-indol-3-ylmethylene)-2-thioxo-thiazolidin-4-one] showed an EC50 of less than 100 nM.
`O=C1/C(=C/c2ccco2)SC(=S)N1C1CCCCC1` [Compound 220] gave an EC50 of 250 to 1000 nM.
`O=C1/C(=C/c2cn(-c3ccc([N+](=O)[O-])cc3)cn2)SC(=S)N1C1CCCCCCC1` [Compound 62] showed an EC50 of 250 to 1000 nM.
Work on `O=C1/C(=C/c2oc(-c3ccc(Cl)cc3)cc2CCCCCO)SC(=S)N1C1C2CC3CC(C2)CC1C3` (stereo not shown) [Compound 334] yielded an EC50 of less than 100 nM.
`CCOC(=O)c1c(F)ccc(-c2ccc(/C=C3\SC(=S)N(C4CCCCCCC4)C3=O)o2)c1F` [Compound 46] was tested, and the EC50 was less than 100 nM.
`COc1ccc(-c2cc(CCCCCO)c(/C=C3\SC(=S)N(C4CC5CCC4C5)C3=O)o2)cc1` (stereo not shown) [Compound 341] gave an EC50 of less than 100 nM.
`O=C1/C(=C/c2oc(-c3ccc(OC(F)(F)F)cc3)cc2CCCCCO)SC(=S)N1C1C2CC3CC(C2)CC1C3` (stereo not shown) [Compound 339] was tested, and the EC50 was less than 100 nM.
`COc1cccc(-c2cc(C#CCCCO)c(/C=C3\SC(=S)N(C4CC5CCC4C5)C3=O)s2)c1` (stereo not shown) [Compound 292] showed an EC50 of less than 100 nM.
`O=C1/C(=C/c2csc3ccccc23)SC(=S)N1C1C2CC3CC(C2)CC1C3` (stereo not shown) [Compound 211, 3-adamantan-2-yl-5-benzo[b]thiophen-3-ylmethylene-2-thioxo-thiazolidin-4-one] was tested, and the EC50 was less than 100 nM.
For `COc1cc(OC)cc(-c2cc(CCCCCOC(=O)[C@]3(O)C[C@@H](O)[C@@H](O)[C@H](O)C3)c(/C=C3\SC(=S)N(C4CC5CCC4C5)C3=O)o2)c1` (stereo partly shown) [Compound 356], the EC50 was less than 100 nM.
In the case of `COc1cc(-c2ccc(/C=C3\SC(=S)N(C4CC5CCC4C5)C3=O)o2)cc(OC)c1OC` (stereo not shown) [Compound 2], the EC50 is reported as less than 100 nM.
In the case of `O=C1/C(=C/c2oc(-c3ccccc3)cc2CO)SC(=S)N1C1CC2CCC1C2` (stereo not shown) [Compound 93], the EC50 is reported as less than 100 nM.
Compound `O=C1/C(=C/c2oc(-c3ccc(F)cc3)cc2CCCOC[C@@H](O)CO)SC(=S)N1C1CC2CCC1C2` (stereo partly drawn) [Compound 204, (Z)-3-(bicyclo[2.2.1]heptan-2-yl)-5-((3-(3-((S)-2,3-dihydroxypropoxy)propyl)-5-(4′-fluorophenyl)-furan-2-yl)methylene)-2-thioxothiazolidin-4-one] has an EC50 of less than 100 nM.
In the case of `O=C1/C(=C/c2oc(-c3ccc(Cl)cc3)cc2CCCN2CCOCC2)SC(=S)N1C1C2CC3CC(C2)CC1C3` (stereo not shown) [Compound 184], the EC50 is reported as less than 100 nM.
`COC(=O)[C@@H](O)[C@H](O)C(=O)OCCCc1cc(-c2ccc(F)cc2)oc1/C=C1\SC(=S)N(C2CC3CCC2C3)C1=O` (stereo partly shown) [Compound 177] was tested, and the EC50 was less than 100 nM.
With `O=C1/C(=C/c2cc(CCCCCO)c(-c3ccc(Cl)cc3)s2)SC(=S)N1C1C2CC3CC(C2)CC1C3` (stereo not shown) [Compound 283] the EC50 was less than 100 nM.
`COc1ccc2oc(=O)c(-c3ccc(/C=C4\SC(=S)N(C5CC6CCC5C6)C4=O)o3)c(O)c2c1` (stereo not shown) [Compound 69] gave an EC50 of 100 to 250 nM.
`COc1ccc2oc(=O)c(-c3ccc(/C=C4\SC(=S)N(C5C6CC7CC(C6)CC5C7)C4=O)o3)c(O)c2c1` (stereo not shown) [Compound 70] gave an EC50 of 100 to 250 nM.
`COc1cccc(-c2cc(CCCCCO)c(/C=C3\SC(=S)N(C4CC5CCC4C5)C3=O)[nH]2)c1` (stereo not shown) [Compound 235] showed an EC50 of less than 100 nM.
`COc1ccc(-c2cc(CCCO)c(/C=C3\SC(=O)N(C4CC5CCC4C5)C3=O)o2)cc1OCC(=O)N1CCC[C@H]1C(=O)O` (stereo partly shown) [Compound 349] gave an EC50 of less than 100 nM.
`COc1cccc(-c2cc(CCCCCO)c(/C=C3\SC(=S)N(C4C5CC6CC(C5)CC4C6)C3=O)s2)c1` (stereo not shown) [Compound 279] was tested, and the EC50 was less than 100 nM.
`COc1ccc(-c2ccc(/C=C3\SC(=S)N(C4CC5CCC4C5)C3=O)o2)cc1C(=O)N[C@@H](CC(C)C)C(=O)O` (stereo partly shown) [Compound 87] gave an EC50 of less than 100 nM.
Compound `CCOC(=O)/C=C/c1ccc(/C=C2\SC(=S)N(C3C4CC5CC(C4)CC3C5)C2=O)o1` (stereo not shown) [Compound 223, (E)-Ethyl 3-(5-((Z)-(3-(adamantan-2-yl)-4-oxo-2-thioxothiazolidin-5-ylidene)methyl)furan-2-yl)acrylate] has an EC50 of less than 100 nM.
Work on `COc1cc(OC)cc(-c2cc(CCCNC(=O)[C@H](Cc3ccc(OC(C)(C)C)cc3)NC(=O)OC(C)(C)C)c(/C=C3\SC(=S)N(C4CC5CCC4C5)C3=O)o2)c1` (stereo partly shown) [Compound 160] yielded an EC50 of less than 100 nM.
`COc1cc(OC)cc(-c2cc(CCCC(C(=O)O)C(=O)O)c(/C=C3\SC(=S)N(C4CC5CCC4C5)C3=O)o2)c1` (stereo not shown) [Compound 134] gave an EC50 of less than 100 nM.
With `O=C1/C(=C/c2ccc(-c3c(O)c4cc(Cl)ccc4oc3=O)o2)SC(=S)N1C1CC2CCC1C2` (stereo not shown) [Compound 322] the EC50 was less than 100 nM.
Compound `COc1cc(OC)cc(-c2cc(CCCn3cc(CO)nn3)c(/C=C3\SC(=S)N(C4C5CC6CC(C5)CC4C6)C3=O)o2)c1` (stereo not shown) [Compound 199, (Z)-3-(adamantan-2-yl)-5-((5-(3′,5′-dimethoxyphenyl)-3-(3-(4′-(hydroxymethyl)-1H-1′,2′,3′-triazol-1-yl)-propyl)furan-2-yl)methylene)-2-thioxothiazolidin-4-one] has an EC50 of less than 100 nM.
Work on `CC(C)(C)OC(=O)N[C@@H](CC(N)=O)C(=O)OCCCc1cc(-c2ccc(Cl)cc2)oc1/C=C1\SC(=S)N(C2CC3CCC2C3)C1=O` (stereo partly shown) [Compound 148] yielded an EC50 of less than 100 nM.
With `O=C1/C(=C/c2sc(-c3ccc(Cl)cc3)cc2-c2ccc(Cl)cc2)SC(=S)N1C1C2CC3CC(C2)CC1C3` (stereo not shown) [Compound 275] the EC50 was less than 100 nM.
`COc1cc(OC)cc(-c2cc(CCCC(C(=O)O)C(=O)O)c(/C=C3\SC(=S)N(C4C5CC6CC(C5)CC4C6)C3=O)o2)c1` (stereo not shown) [Compound 135] gave an EC50 of 100 to 250 nM.
`O=C1/C(=C/c2ccc(-c3c(O)c4cc(OCc5ccc(Cl)cc5)ccc4oc3=O)o2)SC(=S)N1C1CC2CCC1C2` (stereo not shown) [Compound 321] was tested, and the EC50 was less than 100 nM.
Compound `O=C1/C(=C/c2oc(-c3ccc(C(F)(F)F)cc3)cc2CCCCCO)SC(=S)N1C1CC2CCC1C2` (stereo not shown) [Compound 337] has an EC50 of less than 100 nM.
Work on `COc1cc(OC)cc(-c2cc(CCCOC(C)=O)c(/C=C3\SC(=S)N(C4C5CC6CC(C5)CC4C6)C3=O)o2)c1` (stereo not shown) [Compound 98] yielded an EC50 of less than 100 nM.
In the case of `O=C1/C(=C/c2sc(-c3ccc(Cl)cc3)cc2CCCO)SC(=S)N1C1CC2CCC1C2` (stereo not shown) [Compound 276], the EC50 is reported as less than 100 nM.
Compound `COc1ccc(-c2ccc(/C=C3\SC(=S)N(C4CC5CCC4C5)C3=O)o2)cc1` (stereo not shown) [Compound 8] has an EC50 of less than 100 nM.
`COc1cc(OC)cc(-c2cc(CCCO)c(/C=C3\SC(=S)N(C4CC5CCC4C5)C3=O)o2)c1` (stereo not shown) [Compound 96] was tested, and the EC50 was less than 100 nM.
`COc1ccc(-c2ccc(/C=C3\SC(=S)N(C4CC5CCC4C5)C3=O)o2)cc1OCC(=O)N[C@@H](CCC(=O)OCc1ccccc1)C(=O)O` (stereo partly shown) [Compound 81] was tested, and the EC50 was less than 100 nM.
Compound `COc1cc(OC)cc(-c2cc(CCCNC(=O)[C@H](Cc3cn(C(c4ccccc4)(c4ccccc4)c4ccccc4)cn3)NC(=O)OCC3c4ccccc4-c4ccccc43)c(/C=C3\SC(=S)N(C4CC5CCC4C5)C3=O)o2)c1` (stereo partly shown) [Compound 161] has an EC50 of less than 100 nM.
In the case of `COc1cc(COc2ccc3oc(=O)c(-c4ccc(/C=C5\SC(=S)N(C6CC7CCC6C7)C5=O)o4)c(O)c3c2)cc(OC)c1` (stereo not shown) [Compound 326], the EC50 is reported as less than 100 nM.
Work on `COC(=O)/C=C/c1ccc(/C=C2\SC(=S)N(C3CC4CCC3C4)C2=O)o1` (stereo not shown) [Compound 221, (E)-Methyl 3-(5-((Z)-(3-(bicyclo[2.2.1]heptan-2-yl)-4-oxo-2-thioxothiazolidin-5-ylidene)methyl)-furan-2-yl)acrylate] yielded an EC50 of less than 100 nM.
For `O=C1/C(=C/c2[nH]c(-c3ccc(Cl)cc3)cc2CCCCCO)SC(=S)N1C1C2CC3CC(C2)CC1C3` (stereo not shown) [Compound 236], the EC50 was less than 100 nM.
`COc1cc(OC)cc(-c2cc(CCCOC(=O)[C@@H](N)Cc3ccccc3)c(/C=C3\SC(=S)N(C4CC5CCC4C5)C3=O)o2)c1` (stereo partly shown) [Compound 153] gave an EC50 of less than 100 nM.
`O=C1/C(=C/c2ccccc2)SC(=S)N1C1CC2CCC1C2` (stereo not shown) [Compound 207] was tested, and the EC50 was 250 to 1000 nM.
Work on `COc1cccc(-c2cc(CCCCCO)c(/C=C3\SC(=S)N(C4CC5CCC4C5)C3=O)s2)c1` (stereo not shown) [Compound 280] yielded an EC50 of less than 100 nM.
With `O=C1/C(=C/c2[nH]c(-c3ccc(Cl)cc3)cc2CCCCCO)SC(=S)N1C1CC2CCC1C2` (stereo not shown) [Compound 230] the EC50 was less than 100 nM.
Compound `COc1cc(OC)cc(-c2cc(CCCNC(=O)[C@@H](NC(=O)OC(C)(C)C)c3ccccc3)c(/C=C3\SC(=S)N(C4CC5CCC4C5)C3=O)o2)c1` (stereo partly shown) [Compound 162] has an EC50 of less than 100 nM.
For `COc1cc(OC)cc(-c2cc(CCCCCCO)c(/C=C3\SC(=S)N(C4C5CC6CC(C5)CC4C6)C3=O)o2)c1` (stereo not shown) [Compound 112], the EC50 was less than 100 nM.
With `O=C1/C(=C/c2oc(-c3ccc(F)cc3)cc2CCCCCO)SC(=S)N1C1C2CC3CC(C2)CC1C3` (stereo not shown) [Compound 106] the EC50 was less than 100 nM.
Compound `Cn1c(-c2ccc(Cl)cc2)cc(CCCO)c1/C=C1\SC(=S)N(C2CC3CCC2C3)C1=O` (stereo not shown) [Compound 258] has an EC50 greater than 1000 nM.
Compound `COc1cccc(-c2sc(/C=C3\SC(=S)N(C4C5CC6CC(C5)CC4C6)C3=O)cc2C#CCCCO)c1` (stereo not shown) [Compound 289] has an EC50 of less than 100 nM.
In the case of `COc1cccc(-c2cc(CCCO)c(/C=C3\SC(=S)N(C4CC5CCC4C5)C3=O)n2C)c1` (stereo not shown) [Compound 264], the EC50 is reported as 250 to 1000 nM.
For `COc1cc(OC)cc(-c2cc(CCC(=O)O)c(/C=C3\SC(=S)N(C4CC5CCC4C5)C3=O)o2)c1` (stereo not shown) [Compound 132], the EC50 was less than 100 nM.
Work on `COc1cc(OCC(=O)O)cc(-c2ccc(/C=C3\SC(=S)N(C4C5CC6CC(C5)CC4C6)C3=O)o2)c1` (stereo not shown) [Compound 38] yielded an EC50 of less than 100 nM.
Compound `O=C1/C(=C/c2cc(C#CCCCO)c(-c3ccc(Cl)cc3)s2)SC(=S)N1C1C2CC3CC(C2)CC1C3` (stereo not shown) [Compound 287] has an EC50 of less than 100 nM.
